Data on two molecules can be found in US6506928B1, “Dendrimeric fullerene derivatives, process for their preparation, and use as neuroprotectants” (Siemens Axiva GmbH & Co. KG, priority 1998, dated 2003).

One series can be described thus: physchem. As to the method:
The dendrimer fullerene 1 of second generation [18-cascade:methano-C60-fullerene[2]:(2-aza-7-oxa-3,8-dioxooctylidyne):(2-aza-3-oxopentylidyne):propanoic acid] (cf. preparation example 1) is prepared (Scheme 3) analogously to the synthesis of the derivative of first generation 8 shown in Scheme 2. As in the first case, the tert-butyl-protected γ-aminotriscarboxylic acid 3 is reacted with the appropriate nitrotriscarboxylic acid 9, whose tert-butyl ester is the synthesis precursor of 3 (15, 16), using DCC in the presence of 1HO-BT and subsequent reduction with hydrogen to the dendron 10 of second generation [9-cascade:aminomethane[3]:(2-aza-3-oxopentylidyne):tert-butyl propanoate]. […] The analogous removal of the protective groups leads to the dendrimer fullerene 1 of the second generation.

The next series deals with apoptotic neural death. The conditions noted are these: induced by serum withdrawal or exposure of Aβ1-42 protein; literature /12/; cited from earlier work.

In brackets after ≈: the same amount, converted by molar mass.

The solubility is the concentration that dissolves in the medium under given conditions. A low value points to little dissolved substance. `O=CCCC(CCC(=O)O)(CCC(=O)O)NC(=O)CCC(CCC(=O)NC(CCC(=O)O)(CCC(=O)O)CCC(=O)O)(CCC(=O)NC(CCC(=O)O)(CCC(=O)O)CCC(=O)O)NC(=O)CCCOC(=O)C1(C(=O)OCCCC(=O)NC(CCC(=O)NC(CCC(=O)O)(CCC(=O)O)CCC(=O)O)(CCC(=O)NC(CCC(=O)O)(CCC(=O)O)CCC(=O)O)CCC(=O)NC(CCC(=O)O)(CCC(=O)O)CCC(=O)O)C2c3cc4c5c6c(cc7ccc8cc9c%10c%11c(cc(c%12c3c5c(c%12%11)c3c6c7c8c%103)C21)C9)C4` (stereo not shown) [compound 1, 18-cascade:methano-C60-fullerene[2]:(2-aza-7-oxa-3,8-dioxooctylidyne):(2-aza-3-oxopentylidyne):propanoic acid]: in the series “physchem”, the “solubility (in words)” value is given as “very readily soluble”. Besides, the solubility in the series “physchem” (25 °C, pH 7, aqueous buffer) was approximately 34 mg/mL (≈ 13.7 mM); in the series “physchem” (pH 10, aqueous buffer), approximately 250 mg/mL (≈ 100 mM).

Turning to “C60[C(COOH)2]3 [C3-symmetrical derivative]”, the “reduction of apoptotic neural death” value in the series on apoptotic neural death is on record as “reduced apoptotic neural death”.
